Source: patent US12409180B2, “Formulation production process” (Verona Pharma PLC, priority 2022, dated 2025)

Assays:
Format in all cases: physicochemical
[1] = Impurities determination (related substances) by HPLC of products after sterilisation; settings: dry heat treatment at temperatures of from 150° C. to 170° C.
Protocol: (§1) Impurities determination was performed in duplicate with the key high performance liquid chromatography (HPLC) parameters shown in Table 2.
(§2) The assays and related substances of the products obtained by each of sterilisation techniques A to F were assessed by the HPLC methods described above.

[2] = Assay testing by HPLC of products after sterilisation; settings: dry heat treatment at temperatures of from 150° C. to 170° C.
Protocol: (§3) Assay testing was performed in duplicate with the key high performance liquid chromatography (HPLC) parameters shown in Table 1.
as §2

[3] = Overall assessment of products (assay and related substances) after sterilisation
Protocol: as §3, §1, §2

SMILES: COc1cc2c(cc1OC)-c1c/c(=N\c3c(C)cc(C)cc3C)n(CCNC(N)=O)c(=O)n1CC2 [micronised ensifentrine, N-(2-{(2E)-9,10-dimethoxy-4-oxo-2-[(2,4,6-trimethylphenyl)imino]-6,7-dihydro-2H-pyrimido [6,1-a]isoquinolin-3(4H)-yl}ethyl) urea]
- changes in purity [1]: no significant changes
- changes in assay [2]: no significant changes
- changes observed (assay and related substances) ([3]; technique C: dry heat treatment of dry powder, 150° C. for 150 minutes): No significant changes observed.
- changes observed (assay and related substances) ([3]; technique D: dry heat treatment of dry powder, 160° C. for 120 minutes): No significant changes observed.
- changes observed (assay and related substances) ([3]; technique E: dry heat treatment of dry powder, 170° C. for 60 minutes): No significant changes observed.
